Here are results for 1 substance from patent US10874621B2, “Cationic nanoparticles for co-delivery of nucleic acids and therapeutic agents” (The Brigham and Women's Hospital, Inc., priority 2013, dated 2020).

The data set is described as follows: Solubility of compound 1 in organic solvents. In kind it is physicochemical. Particulars: organic solvents like DMSO and dichloromethane (DCM).

“cis,cis,trans-[Pt(NH3)2Cl2(OOC(CH2)8CH3)2] [Compound 1]”: the “solubility in organic solvents” value was “sufficiently soluble”.
